# From patent US4724233A, “Therapeutical application of phosphonylmethoxyalkyl adenines” (Stichting Rega VZW, priority 1985, dated 1988)
# Read-outs that look alike come from different tables or passages of the source.
# Legend:
# Reovirus = assay: inhibition of cytopathic effect of reovirus; type: cell-based; settings: Table 3; Vero B cells
# Parainfluenza 3 = assay: inhibition of cytopathic effect of parainfluenza 3; type: cell-based; settings: Table 3; Vero B cells
# Sindbis = assay: inhibition of cytopathic effect of Sindbis; type: cell-based; settings: Table 3; Vero B cells
# Coxsackie B4 = assay: inhibition of cytopathic effect of Coxsackie B4; type: cell-based; settings: Table 3; Vero B, HeLa cells
# Polio 1 = assay: microbe, parasite or virus in culture; type: cell-based; settings: Table 3; HeLa cells
# Measles = assay: inhibition of cytopathic effect of measles; type: cell-based; settings: Table 3; Vero Flow cells
# Vesicular stomatitis = assay: microbe, parasite or virus in culture; type: cell-based
# Vaccinia = assay: microbe, parasite or virus in culture; type: cell-based
# Herpes simplex I (KOS) = assay: inhibition of cytopathic effect of herpes simplex 1 (KOS); type: cell-based, herpes simplex virus type 1; settings: Table 3, PRK cells
# Herpes simplex 2 (G) = assay: inhibition of cytopathic effect of herpes simplex 2 (G); type: cell-based, herpes simplex virus type 2; settings: PRK cells; for EC50: Human alphaherpesvirus 2, PRK, read-out: MIC50
# Moloney sarcoma = assay: inhibition of Moloney sarcoma virus; type: cell-based, Moloney mouse sarcoma virus; settings: Table 3, MO cells
# HSV-1 (strain) McIntyre = assay: inhibition of cytopathic effect of HSV-1 strain McIntyre; type: cell-based, herpes simplex virus type 1; settings: Table 4, HSV-1 McIntyre, PRK cells
# HSV-1 (strain) F = assay: inhibition of cytopathic effect of HSV-1 strain F; type: cell-based, herpes simplex virus type 1; settings: Table 4, HSV-1 F, PRK cells
# [1] = tested on: HSV-1 (strain) TK^- C1101; assay: inhibition of cytopathic effect of HSV-1 TK- strain C1101; type: cell-based, herpes simplex virus type 1
# HSV-2 (strain) 196 = assay: inhibition of cytopathic effect of HSV-2 strain 196; type: cell-based, herpes simplex virus type 2; settings: Table 4, HSV-2 196, PRK cells
# HSV-2 (strain) Lyons = assay: inhibition of cytopathic effect of HSV-2 strain Lyons; type: cell-based, herpes simplex virus type 2; settings: Table 4, HSV-2 Lyons, PRK cells
# [2] = tested on: herpes simplex virus type 1 (HSV-1) (strain KOS); type: cell-based; settings: PRK cells
# vaccinia virus (VV) = type: cell-based; settings: PRK cells, average of two determinations
# PRK cells [3] = settings: 72 h
# PRK cells [4] = assay: antimetabolic activity: incorporation of 3H-labeled precursors into primary rabbit kidney cells
# [5] = tested on: HSV-1 (strain) TK^- B2006; assay: inhibition of cytopathic effect of HSV-1 TK- strain B2006; type: cell-based, herpes simplex virus type 1; settings: Human alphaherpesvirus 1, PRK, read-out: MIC50
# CMV (strain) Davis = assay: inhibition of CMV strain Davis in HEL cells; type: cell-based, cytomegalovirus; settings: Human betaherpesvirus 5, Table 5, read-out: MIC50
# CMV (strain) AD 169 = assay: inhibition of CMV strain AD 169 in HEL cells; type: cell-based, cytomegalovirus; settings: Human betaherpesvirus 5; Table 5; CMV AD 169, HEL cells; read-out: MIC50
# TK^- herpes viruses = settings: Prusoff et al.; cited from earlier work
# [6] = cited from earlier work
# [7] = 48 h, 10 μg/ml (value in parentheses)
# [8] = Human alphaherpesvirus 1, read-out: MIC50
# [9] = Human alphaherpesvirus 2, read-out: MIC50
smiles,measurement,setting,value
"Nc1ncnc2c1ncn2CC1COP(=O)(O)CO1 (racemic) [No. 5, 2',3'-cyclic O-phosphonylmethyl ether of (RS)-9-(2,3-dihydroxypropyl)adenine]",MIC50,Reovirus,> 200 µg/mL
same,MIC50,Parainfluenza 3,> 400 µg/mL
same,MIC50,Sindbis,> 400 µg/mL
same,MIC50,Coxsackie B4,> 400 µg/mL
same,MIC50,Polio 1,> 400 µg/mL
same,MIC50,Measles,> 100 µg/mL
same,MIC50,"Vesicular stomatitis; Table 3, HeLa, PRK cells",> 400 µg/mL
same,MIC50,"Vaccinia; Table 3, PRK cells",0.7 to 3.0 µg/mL
same,MIC50,Herpes simplex I (KOS),30 µg/mL
same,MIC50,Herpes simplex 2 (G); Table 3,30 µg/mL
same,MIC50,Moloney sarcoma,> 200 µg/mL
same,MIC50,HSV-1 (strain) McIntyre,30 µg/mL
same,MIC50,HSV-1 (strain) F,30 µg/mL
same,MIC50,"[1]; Table 4, HSV-1 TK^- C1101, PRK cells",7 µg/mL
same,MIC50,HSV-2 (strain) 196,15 µg/mL
same,MIC50,HSV-2 (strain) Lyons,15 µg/mL
same,Titer of HSV-1,"[2]; 24 h, 100 μg/ml",< 1.3 log10 PFU/ml
same,Titer of HSV-1,[2]; [7],6.04 log10 PFU/ml
same,Titer of HSV-1,"[2]; 48 h, 100 μg/ml",2.8 log10 PFU/ml
same,Titer of VV,"vaccinia virus (VV); 1 h, 100 μg/ml",1.6 log10 PFU/ml
same,Titer of VV,"vaccinia virus (VV); 24 h, 100 μg/ml",1.8 log10 PFU/ml
same,Titer of VV,vaccinia virus (VV); [7],< 1.3 log10 PFU/ml
same,Titer of VV,"vaccinia virus (VV); 48 h, 100 μg/ml",< 1.3 log10 PFU/ml
same,Titer of VV,"vaccinia virus (VV); 72 h, 100 μg/ml",1.5 log10 PFU/ml
same,MCC (minimal cytotoxic concentration),PRK cells [3],> 400 µg/mL
same,ID50 dUrd incorporation,"PRK cells [4]; (3H-1',2')dUrd",≥ 360 µg/mL
same,ID50 Leu incorporation,"PRK cells [4]; (3H-4,5)Leu",> 400 µg/mL
same,ID50 Urd incorporation,PRK cells [4]; (3H-5)Urd,> 400 µg/mL
same,ID50 dThd incorporation,PRK cells [4]; (3H-methyl) dThd,≥ 390 µg/mL
"Nc1nc2c(ncn2COCCO)c(=O)[nH]1 [ACV, aclycovir, reference compound]",EC50,Vesicular stomatitis; read-out: MIC50,> 400 µg/mL
same,EC50,"Vaccinia; Orthopoxvirus vaccinia, PRK, read-out: MIC50",70 µg/mL
same,EC50,Herpes simplex I (KOS); [8],0.2 µg/mL
same,EC50,Herpes simplex 2 (G); Table 3,0.7 µg/mL
same,EC50,"Herpes simplex 2 (G); Table 4, HSV-2 G",0.07 µg/mL
same,EC50,"Moloney sarcoma; Mus musculus, read-out: MIC50",50 µg/mL
same,EC50,HSV-1 (strain) McIntyre; [8],0.1 µg/mL
same,EC50,HSV-1 (strain) F; [8],0.2 µg/mL
same,EC50,[5],70 µg/mL
same,EC50,"[1]; Human alphaherpesvirus 1, PRK, read-out: MIC50",20 µg/mL
same,EC50,HSV-2 (strain) 196; [9],0.07 µg/mL
same,EC50,HSV-2 (strain) Lyons; [9],0.07 µg/mL
same,EC50,CMV (strain) Davis,20 µg/mL
same,EC50,CMV (strain) AD 169,30 µg/mL
same,activity against TK^- herpes viruses (in words),TK^- herpes viruses,inactive
same,solubility (in words),[6],low solubility
